Results on 34 compounds are retold here after US20240217978A1 (CHONG KUN DANG PHARMACEUTICAL CORP., priority 2021, published 2024).

Molecules are shown by their SMILES.

Chain of human adenosine A2a receptor (P29274 whole entry): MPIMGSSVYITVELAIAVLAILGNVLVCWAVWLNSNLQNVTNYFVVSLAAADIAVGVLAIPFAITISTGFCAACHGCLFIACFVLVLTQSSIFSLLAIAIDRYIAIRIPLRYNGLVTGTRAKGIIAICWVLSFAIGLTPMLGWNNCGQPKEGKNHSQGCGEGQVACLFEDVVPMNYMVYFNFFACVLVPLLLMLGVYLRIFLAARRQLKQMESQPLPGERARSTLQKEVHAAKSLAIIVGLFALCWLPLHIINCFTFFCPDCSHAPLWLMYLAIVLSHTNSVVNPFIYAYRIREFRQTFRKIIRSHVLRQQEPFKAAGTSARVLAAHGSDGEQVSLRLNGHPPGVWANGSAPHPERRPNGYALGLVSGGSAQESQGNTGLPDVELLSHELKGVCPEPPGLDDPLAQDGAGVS

For the assay, the target named is human adenosine A2a receptor (Homo sapiens (Human), UniProt P29274). Kind of assay: A2a receptor binding affinity, [3H]-NECA radioligand binding test. The note with it: [3H]-NECA 37 nM; membrane from HEK-293 cells transfected with human adenosine A2a receptor. Put shortly:
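Membranes from HEK-293 cells expressing human A2a receptor were incubated with [3H]-NECA (final 37 nM) and compound for 1 h at room temperature in 50 mM Tris, 10 mM MgCl2, 1 mM EDTA, pH 7.4. Bound ligand was filtered on PEI-coated plates and counted by scintillation to derive IC50 (μM).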
Broadly, the IC50 is the concentration needed to halve the response being measured. A low value points to greater potency in that assay. As to `CCC(C)S(=O)(=O)N1CCN(C(=O)[C@@H]2CCCN2c2nc(N)n3nc(-c4ccco4)nc3n2)CC1` (stereo partly drawn) [Example 72, ((S)-1-(7-amino-2-(furan-2-yl)-[1,2,4]triazolo[1,5-a][1,3,5]triazin-5-yl)pyrrolidin-2-yl)(4-(sec-butylsulfonyl)piperazin-1-yl)methanone], the IC50 was determined as 1 nM.

`Nc1nc(N2CCC[C@H]2C(=O)N2CCN(C(=O)CC(F)(F)F)CC2)nc2nc(-c3ccco3)nn12` [Example 73, 1-(4-((7-amino-2-(furan-2-yl)-[1,2,4]triazolo[1,5-a][1,3,5]triazin-5-yl)-L-prolyl)piperazin-1-yl)-3,3,3-trifluoropropan-1-one]: the IC50 stood at 11 nM.

With `Nc1nc(N2CCC[C@H]2C(=O)N2CCN(C(=O)C3(C(F)(F)F)CC3)CC2)nc2nc(-c3ccco3)nn12` [Example 74], the IC50 is 13 nM.

Turning to `Nc1nc(N2CCC[C@H]2C(=O)N2CCN(C(=O)C3(C(F)(F)F)CCC3)CC2)nc2nc(-c3ccco3)nn12` [Example 75], the IC50 is 9 nM.

In turn, `Nc1nc(N2CCC[C@H]2C(=O)N2CCN(C(=O)C3(C(F)(F)F)CCCC3)CC2)nc2nc(-c3ccco3)nn12` [Example 76] had an IC50 of 2 nM.

`Nc1nc(N2CCC[C@H]2C(=O)N2CCN(C(=O)C3(C(F)(F)F)CCCCC3)CC2)nc2nc(-c3ccco3)nn12` [Example 77] had an IC50 of 0.4 nM.

`Nc1nc(N2CCC[C@H]2C(=O)N2CCC(C(=O)Nc3ccccc3)CC2)nc2nc(-c3ccco3)nn12` [Example 78, 1-((7-amino-2-(furan-2-yl)-[1,2,4]triazolo[1,5-a][1,3,5]triazin-5-yl)-L-prolyl)-N-phenylpiperidin-4-carboxamide] came in with a concentration for half-maximal inhibition (IC50) of 14 nM.

Consider `Nc1nc(N2CCC[C@H]2C(=O)N2CCC(C(=O)Nc3ccccn3)CC2)nc2nc(-c3ccco3)nn12` [Example 79, 1-((7-amino-2-(furan-2-yl)-[1,2,4]triazolo[1,5-a][1,3,5]triazin-5-yl)-L-prolyl)-N-(pyridin-2-yl)piperidin-4-carboxamide], for which the IC50 stood at 11 nM.

On to `Nc1nc(N2CCC[C@H]2C(=O)N2CCC(C(=O)Nc3cnccn3)CC2)nc2nc(-c3ccco3)nn12` [Example 80, 1-((7-amino-2-(furan-2-yl)-[1,2,4]triazolo[1,5-a][1,3,5]triazin-5-yl)-L-prolyl)-N-(pyrazin-2-yl)piperidin-4-carboxamide], for which the IC50 was found to be 7 nM.

Regarding `Nc1nc(N2CCC[C@H]2C(=O)N2CCC(C(=O)NCc3ccccc3)CC2)nc2nc(-c3ccco3)nn12` [Example 81, 1-((7-amino-2-(furan-2-yl)-[1,2,4]triazolo[1,5-a][1,3,5]triazin-5-yl)-L-prolyl)-N-benzylpiperidin-4-carboxamide], the IC50 was 8 nM.

With `CN1CCN(c2cccc(C(=O)N3CCN(C(=O)[C@@H]4CCCN4c4nc(N)n5nc(-c6ccco6)nc5n4)CC3)c2)CC1` [Example 82, (4-((7-amino-2-(furan-2-yl)-[1,2,4]triazolo[1,5-a][1,3,5]triazin-5-yl)-L-prolyl)piperazin-1-yl)(3-(4-methylpiperazin-1-yl)phenyl)methanone], the IC50 was 6 nM.

For the compound `Nc1nc(N2CCC[C@H]2C(=O)N2CCN(C(=O)c3ccc(C(F)(F)F)cn3)CC2)nc2nc(-c3ccco3)nn12` [Example 83], the IC50 came to 16 nM.

As for `Cc1ccc(-c2nc3nc(N4CCC[C@H]4C(=O)N4CCN(C5CCCCC5)CC4)nc(N)n3n2)o1` [Example 84, (S)-(1-(7-amino-2-(5-methylfuran-2-yl)-[1,2,4]triazolo[1,5-a][1,3,5]triazin-5-yl)pyrrolidin-2-yl)(4-cyclohexylpiperazin-1-yl)methanone], the IC50 turned out to be 14 nM.

As to `CC(C)(F)C(=O)N1CCN(C(=O)[C@@H]2CCCN2c2nc(N)n3nc(-c4ccco4)nc3n2)CC1` [Example 85, 1-(4-((7-amino-2-(furan-2-yl)-[1,2,4]triazolo[1,5-a][1,3,5]triazin-5-yl)-L-prolyl)piperazin-1-yl)-2-fluoro-2-methylpropan-1-one], the IC50 was determined as 28 nM.

In the case of `CC(C)(C(=O)N1CCN(C(=O)[C@@H]2CCCN2c2nc(N)n3nc(-c4ccco4)nc3n2)CC1)C(F)(F)F` [Example 86, 1-(4-((7-amino-2-(furan-2-yl)-[1,2,4]triazolo[1,5-a][1,3,5]triazin-5-yl)-L-prolyl)piperazin-1-yl)-3,3,3-trifluoro-2,2-dimethylpropan-1-one], the IC50 was 15 nM.

`Cc1ccc(-c2nc3nc(N4CCC[C@H]4C(=O)N4CCN(c5ccc(F)cc5F)CC4)nc(N)n3n2)o1` [Example 87, (S)-(1-(7-amino-2-(5-methylfuran-2-yl)-[1,2,4]triazolo[1,5-a][1,3,5]triazin-5-yl)pyrrolidin-2-yl)(4-(2,4-difluorophenyl)piperazin-1-yl)methanone] yielded an IC50 of 1 nM.

As to `CCC(O)(CC)CN1CCN(C(=O)[C@@H]2CCCN2c2nc(N)n3nc(-c4ccc(C)o4)nc3n2)CC1` [Example 88, (S)-(1-(7-amino-2-(5-methylfuran-2-yl)-[1,2,4]triazolo[1,5-a][1,3,5]triazin-5-yl)pyrrolidin-2-yl)(4-(2-ethyl-2-hydroxybutyl)piperazin-1-yl) methanone], the IC50 is 12 nM.

In turn, `Cc1ccc(-c2nc3nc(N4CCC[C@H]4C(=O)N4CCN(CC(F)(F)F)CC4)nc(N)n3n2)o1` [Example 89, (S)-(1-(7-amino-2-(5-methylfuran-2-yl)-[1,2,4]triazolo[1,5-a][1,3,5]triazin-5-yl)pyrrolidin-2-yl)(4-(2,2,2-trifluoroethyl)piperazin-1-yl)methanone] gave an IC50 of 17 nM.

`Cc1ccc(-c2nc3nc(N4CCC[C@H]4C(=O)N4CCN(CC(C)(C)F)CC4)nc(N)n3n2)o1` [Example 90, (S)-(1-(7-amino-2-(5-methylfuran-2-yl)-[1,2,4]triazolo[1,5-a][1,3,5]triazin-5-yl)pyrrolidin-2-yl)(4-(2-fluoro-2-methylpropyl)piperazin-1-yl)methanone] returned an IC50 of 8 nM.

The compound `COCCN1CCN(C(=O)[C@@H]2CCCN2c2nc(N)n3nc(-c4ccc(C)o4)nc3n2)CC1` [Example 91, (S)-(1-(7-amino-2-(5-methylfuran-2-yl)-[1,2,4]triazolo[1,5-a][1,3,5]triazin-5-yl)pyrrolidin-2-yl)(4-(2-methoxyethyl)piperazin-1-yl)methanone] yielded an IC50 of 7 nM.

In turn, `COCCN1CCN(C(=O)[C@H]2CCCN2c2nc(N)n3nc(-c4ccco4)nc3n2)CC1` [Example 92, (R)-(1-(7-amino-2-(furan-2-yl)-[1,2,4]triazolo[1,5-a][1,3,5]triazin-5-yl)pyrrolidin-2-yl)(4-(2-methoxyethyl)piperazin-1-yl)methanone] returned an IC50 of 2290 nM.

`CC(C)(F)CN1CCN(C(=O)[C@H]2CCCN2c2nc(N)n3nc(-c4ccco4)nc3n2)CC1` [Example 93, (R)-(1-(7-amino-2-(furan-2-yl)-[1,2,4]triazolo[1,5-a][1,3,5]triazin-5-yl)pyrrolidin-2-yl)(4-(2-fluoro-2-methylpropyl)piperazin-1-yl)methanone] came in with an IC50 of 3790 nM.

Take `Nc1nc(N2CCC[C@@H]2C(=O)N2CCN(CC(F)(F)F)CC2)nc2nc(-c3ccco3)nn12` [Example 94, (R)-(1-(7-amino-2-(furan-2-yl)-[1,2,4]triazolo[1,5-a][1,3,5]triazin-5-yl)pyrrolidin-2-yl)(4-(2,2,2-trifluoroethyl)piperazin-1-yl)methanone]: the IC50 is 4390 nM.

On to `Nc1nc(N2CCC[C@@H]2C(=O)N2CCN(Cc3ccccc3)CC2)nc2nc(-c3ccco3)nn12` [Example 95, (R)-(1-(7-amino-2-(furan-2-yl)-[1,2,4]triazolo[1,5-a][1,3,5]triazin-5-yl)pyrrolidin-2-yl)(4-benzylpiperazin-1-yl)methanone], for which the IC50 is 4990 nM.

`Nc1nc(N2CCC[C@@H]2C(=O)N2CCN(Cc3ccc(F)cc3F)CC2)nc2nc(-c3ccco3)nn12` [Example 96, (R)-(1-(7-amino-2-(furan-2-yl)-[1,2,4]triazolo[1,5-a][1,3,5]triazin-5-yl)pyrrolidin-2-yl)(4-(2,4-difluorobenzyl)piperazin-1-yl)methanone] displayed an IC50 of 1630 nM.

Consider `Nc1nc(N2CCC[C@@H]2C(=O)N2CCN(c3ccc(F)cc3F)CC2)nc2nc(-c3ccco3)nn12` [Example 97, (R)-(1-(7-amino-2-(furan-2-yl)-[1,2,4]triazolo[1,5-a][1,3,5]triazin-5-yl)pyrrolidin-2-yl)(4-(2,4-difluorophenyl)piperazin-1-yl)methanone], for which the IC50 came to 3350 nM.

The compound `Nc1nc(N2CCC[C@@H]2C(=O)N2CCN(C(=O)c3ccccc3)CC2)nc2nc(-c3ccco3)nn12` [Example 98] displayed an IC50 of 11300 nM.

As to `Nc1nc(N2CCC[C@@H]2C(=O)N2CCN(C(=O)Nc3ccccc3)CC2)nc2nc(-c3ccco3)nn12` [Example 100], the IC50 was 9460 nM.

The compound `Cn1cnc(C(=O)N2CCN(C(=O)[C@@H]3CCCN3c3nc(N)n4nc(-c5ccco5)nc4n3)CC2)c1` [Example 102] displayed an IC50 of 10 nM.

The compound `Cc1cnc(C(=O)N2CCN(C(=O)[C@@H]3CCCN3c3nc(N)n4nc(-c5ccco5)nc4n3)CC2)s1` [Example 103] registered an IC50 of 6 nM.

The compound `Cc1ncc(C(=O)N2CCN(C(=O)[C@@H]3CCCN3c3nc(N)n4nc(-c5ccco5)nc4n3)CC2)s1` [Example 104] yielded an IC50 of 11 nM.

Regarding `Nc1nc(N2CCC[C@H]2C(=O)N2CCN(C(=O)c3cscn3)CC2)nc2nc(-c3ccco3)nn12` [Example 105], the IC50 came to 3 nM.

Compound `Nc1nc(N2CCC[C@H]2C(=O)N2CCN(C(=O)C3CCS(=O)(=O)CC3)CC2)nc2nc(-c3ccco3)nn12` [Example 106] registered an IC50 of 7 nM.

Compound `COCCN1CCN(C(=O)[C@@H]2CCN2c2nc(N)n3nc(-c4ccco4)nc3n2)CC1` [Example 107, (S)-(1-(7-amino-2-(furan-2-yl)-[1,2,4]triazolo[1,5-a][1,3,5]triazin-5-yl)azetidin-2-yl)(4-(2-methoxyethyl)piperazin-1-yl) methanone] displayed an IC50 of 9 nM.
